Consider four molecules from PMC5666896, “Molecular Docking and Screening Studies of New Natural Sortase A Inhibitors” (International Journal of Molecular Sciences, 2017).

Values after ≈ are worked out from the molar mass of the structure shown. “Also recorded” adds a separate entry of the source. Some results are limits rather than exact numbers.

One data set relates to tested bacteria strains. In words: Preliminary antibacterial screening by well diffusion test. The note with it: eight strains. It is filed as cell-based. As to the method: (§1) Eight food-related microorganisms were used to evaluate the antimicrobial properties, including the Gram-positive Staphylococcus aureus ATCC 6538, Staphylococcus aureus ATCC 25923, Staphylococcus epidermidis ATCC 12228, Enterococcus faecalis ATCC 29212, Bacillus cereus ATCC 11778, and the Gram-negative Escherichia coli ATCC 8739, Escherichia coli ATCC 35218, and Proteus mirabilis ATCC 29245. The antibacterial assays were performed by the well diffusion and broth microdilution method (ISO 20776-1) in order to determine MIC.
(§2) Test microorganisms were stored in freezing conditions and activated by cultivation in Nutrient broth at 37 °C for 24 h. Overnight cultures were used to obtain the inoculum by transferring an amount of cells from the broth to a test tube containing 5 mL of demineralized water until a turbidity of 1–2 × 10^8 colony-forming unit (CFU)/mL was achieved, equivalent to 0.5 McFarland standard. Dilutions of the inoculum were cultured on nutrient agar supplemented with 5% sheep blood to verify the absence of contamination and the validity of the inoculum.
Compounds were investigated by the agar well diffusion method. The plates containing Mueller Hinton agar medium were spread with 0.1 mL of the bacterial inoculum. […] Microbial inhibition was visually appreciated as the diameter of the inhibition zones surrounding the well and recorded in mm. […]

Data set [1] deals with T1, SrtA (Staphylococcus aureus, UniProt Q2FV99).
T1 construct: purchased Anaspec, San Jose, CA, USA
In words: Sortase A activity assay (FRET, SensoLyte 520 kit). The format is biochemical, S. aureus. As to the method: The inhibitory activity of all of the compounds was determined by quantifying the increase in fluorescence intensity upon a cleavage 5-FAM/QXL® FRET substrate using a SensoLyte® 520 Sortase A Activity Assay Kit (Anaspec, San Jose, CA, USA). According to kit protocol, reactions were performed in a 96-well plate, with each well containing 10 μL test compound solution, 40 μL enzyme solution, and 50 μL sortase substrate solution. All compounds were dissolved in dimethyl sulfoxide (DMSO) and diluted with sterilized distilled water. The final concentration of DMSO was 1%. Each compound diluted in buffer to the tested concentration and was checked for intrinsic fluorescence. According to the kit protocol, we used the enzyme without the test compound as a control, a 1% DMSO control, and a substrate control. We used the kit inhibitor, 4-hydroxymercuribenzoic acid (HMB), as the positive control. Reactions were carried out for 1 h at room temperature and analyzed fluorometrically (SpectraMAX Gemini XS, CA, USA) at Ex/Em = 490 nm/520 nm. All reported values are the means of triplicate assays.

Data set [2] concerns S. epidermidis ATCC 12228. Put plainly: Broth microdilution MIC. It is filed as cell-based. The note with it: Staphylococcus epidermidis, ATCC12228; 37 °C, 24 h. As to the method: (§3) Eight food-related microorganisms were used to evaluate the antimicrobial properties, including the Gram-positive Staphylococcus aureus ATCC 6538, Staphylococcus aureus ATCC 25923, Staphylococcus epidermidis ATCC 12228, Enterococcus faecalis ATCC 29212, Bacillus cereus ATCC 11778, and the Gram-negative Escherichia coli ATCC 8739, Escherichia coli ATCC 35218, and Proteus mirabilis ATCC 29245. The antibacterial assays were performed by the well diffusion and broth microdilution method (ISO 20776-1) in order to determine MIC. Test microorganisms were stored in freezing conditions and activated by cultivation in Nutrient broth at 37 °C for 24 h. […] Dilutions of the inoculum were cultured on nutrient agar supplemented with 5% sheep blood to verify the absence of contamination and the validity of the inoculum. Bacterial strains susceptible to compounds in the well diffusion assay were studied for their MIC values using 96-well microtiter plates. The experiments were conducted using the reference method for testing the in vitro activity of the antimicrobial agents where MIC is the lowest concentration of an antimicrobial agent that, under defined in vitro conditions, prevents the appearance of visible growth of the microorganism after its incubation overnight. A total of 250 μL of the bacterial suspension in sterile demineralized water was added to 11 mL Mueller-Hinton broth (MBH) to a concentration of 5 × 10^7 cells/mL. Compounds to be investigated were dissolved in MBH containing bacterial inoculum (5 × 10^4 CFU/well) to achieve the two-fold serial concentrations ranging between […] [30]. The microplates were covered with an adhesive seal and incubated at 37 °C for 24 h. DMSO combined with MHB was used as the negative control for each bacterial strain. The plates were visually read under normal laboratory lighting using a manual mirror viewer. Two replicates were conducted for each compound and each bacterial strain.

Data set [3] relates to B. cereus ATCC 11778. Put plainly: Broth microdilution MIC. The following applies: Bacillus cereus, ATCC11778; 37 °C, 24 h. The format is cell-based. As to the method:
as §3

The test system of data set [4] is S. aureus ATCC 25923. In words: Broth microdilution MIC. It is filed as cell-based. The note with it: Staphylococcus aureus, ATCC25923; 37 °C, 24 h. As to the method: as §3
The next data set is described as follows: in vivo. The following applies: in vivo. As to the method: (§4) The Daphnia magna test was performed in 4 mL 12-tissue culture wells, using 10 daphnids/well, with each sample being tested in duplicate. […] All experiments were conducted in the dark, in a plant growth chamber (Sanyo MLR-351 H, San Diego, CA, USA) at 25 ± 1 °C [32, 33].
(§5) Statistical analysis of the inhibitory effect on SrtA and the Daphnia magna bioassay was performed using GraphPad Prism version 5.01 software (GraphPad Software, Inc., La Jolla, CA, USA). A student’s t-test (p < 0.05) was applied in order to analyze the results obtained from replicates. […] The inhibition (I %) and lethality percentage (L %) values were calculated and plotted against the logarithm of concentrations and the corresponding curves were calculated using the least squares fit method. […] Whenever the obtained results permitted, the upper and lower limits of the 95% confidence interval (95% CI) and the correlation coefficient (r^2) were calculated.

The subject of another data set is P. mirabilis ATCC 29245. In words: Well diffusion test. The format is cell-based. The following applies: Proteus mirabilis, ATCC29245; well 6 mm; gentamicin 10 μg, emodin 13.5 μg, rhein 14.2 μg; 37 °C, 24 h; read-out: Diameters of inhibition zone (mm), including diameter of well. As for the experimental part: as §1, §2
(§6) Compounds were investigated by the agar well diffusion method. The plates containing Mueller Hinton agar medium were spread with 0.1 mL of the bacterial inoculum. The wells (6 mm diameter) were filled with 50 μL of the sample. The plates were incubated at 37 °C for 24 h. DMSO was used as a negative control and one standard antibiotic (gentamicin, 10 μg) as a positive control. Microbial inhibition was visually appreciated as the diameter of the inhibition zones surrounding the well and recorded in mm. All tests were run in triplicate for each combination of extract and microbial strain [26].

The subject of data set [5] is S. epidermidis ATCC 12228. Put plainly: Well diffusion test. It is filed as cell-based. The following applies: Staphylococcus epidermidis, ATCC12228; well 6 mm; gentamicin 10 μg, emodin 13.5 μg, rhein 14.2 μg; 37 °C, 24 h; read-out: Diameters of inhibition zone (mm), including diameter of well. As for the experimental part: as §1, §2, §6
A further data set deals with E. coli ATCC 8739. Put plainly: Well diffusion test. The note with it: Escherichia coli, ATCC8739; well 6 mm; gentamicin 10 μg, emodin 13.5 μg, rhein 14.2 μg; 37 °C, 24 h; read-out: Diameters of inhibition zone (mm), including diameter of well. It is filed as cell-based. As to the method: as §1, §2, §6
The test system of a further data set is E. coli ATCC 35218. In words: Well diffusion test. The following applies: Escherichia coli, ATCC35218; well 6 mm; gentamicin 10 μg, emodin 13.5 μg, rhein 14.2 μg; 37 °C, 24 h; read-out: Diameters of inhibition zone (mm), including diameter of well. The format is cell-based. As for the experimental part: as §1, §2, §6
The test system of data set [6] is B. cereus ATCC 11778. In words: Well diffusion test. The format is cell-based. The note with it: Bacillus cereus, ATCC11778; well 6 mm; gentamicin 10 μg, emodin 13.5 μg, rhein 14.2 μg; 37 °C, 24 h; read-out: Diameters of inhibition zone (mm), including diameter of well. As to the method: as §1, §2, §6
Another data set deals with S. aureus ATCC 6538. Put plainly: Well diffusion test. The note with it: Staphylococcus aureus, ATCC6538; well 6 mm; gentamicin 10 μg, emodin 13.5 μg, rhein 14.2 μg; 37 °C, 24 h; read-out: Diameters of inhibition zone (mm), including diameter of well. The format is cell-based. As to the method: as §1, §2, §6
A further data set relates to E. faecalis ATCC 29212. In words: Well diffusion test. It is filed as cell-based. The following applies: Enterococcus faecalis, ATCC29212; well 6 mm; gentamicin 10 μg, emodin 13.5 μg, rhein 14.2 μg; 37 °C, 24 h; read-out: Diameters of inhibition zone (mm), including diameter of well. As to the method:
as §1, §2, §6

For data set [7], the system named is S. aureus ATCC 25923. Put plainly: Well diffusion test. The format is cell-based. The note with it: Staphylococcus aureus, ATCC25923; well 6 mm; gentamicin 10 μg, emodin 13.5 μg, rhein 14.2 μg; 37 °C, 24 h; read-out: Diameters of inhibition zone (mm), including diameter of well. As to the method:
as §1, §2, §6

In data set [8] the target is T1, SrtA. The note with it: cited from earlier work.
Data set [9] can be described thus: Solubility in water (observation during FRET testing).
Another data set relates to Daphnia magna. Put plainly: in vivo. The note with it: after 48 h; tested 0.5 to 100 μM. As for the experimental part: as §4, §5

T1 sequence (Q2FV99 whole entry): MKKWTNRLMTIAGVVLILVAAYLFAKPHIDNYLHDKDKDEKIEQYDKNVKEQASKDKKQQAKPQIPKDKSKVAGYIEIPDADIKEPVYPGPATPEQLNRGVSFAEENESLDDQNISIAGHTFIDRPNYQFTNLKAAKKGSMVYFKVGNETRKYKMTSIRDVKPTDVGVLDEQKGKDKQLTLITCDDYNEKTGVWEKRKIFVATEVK

`Cc1cc(O)c2c(c1)C(=O)c1cc(O)cc(O)c1C2=O` [Emodin]: the “Antimicrobial effect (result in words)” value in the data set on tested bacteria strains was “observable antimicrobial effect”. Further, the “SrtA inhibition (result in words)” value on SrtA [1] is reported as “statistically significant SrtA inhibition”. Also, testing at 100 µM against SrtA [1] gave an inhibition of 10.1%. In addition, the values for the MIC (in data set [2]; in the data set on B. cereus ATCC 11778 [3]; in the data set with S. aureus ATCC 25923 [4]) were 8 µg/mL (≈ 29.6 µM), 16 µg/mL (≈ 59.2 µM) and 8 µg/mL (≈ 29.6 µM), respectively. Besides, in “in vivo”, the LC50 at 24 h was found to be 34.7 µM. Moreover, the LC50 at 48 h in the data set “in vivo” stood at 24.2 µM. The zone of inhibition at 13.5 µg/disc with P. mirabilis ATCC 29245 stood at 6 mm; in [5], 14 mm; in the data set with E. coli ATCC 8739, 6 mm; in the data set on E. coli ATCC 35218 it was 6 mm; with B. cereus ATCC 11778 [6], 12 mm; with S. aureus ATCC 6538 it was 6 mm. Also, the figures for the zone of inhibition at 13.5 µg/disc in the data set with E. faecalis ATCC 29212 and in the data set on S. aureus ATCC 25923 [7] were 6 mm and 20 mm, respectively.

Regarding `CNC(C)C1CCC(N)C(OC2C(N)CC(N)C(OC3OCC(C)(O)C(NC)C3O)C2O)O1` (centres unmarked) [Gentamicin, reference compound], the MIC in data set [2] came out at 2 µg/mL (≈ 4.19 µM); against B. cereus ATCC 11778 [3], 4 µg/mL (≈ 8.38 µM); against S. aureus ATCC 25923 [4], 2 µg/mL (≈ 4.19 µM). Also, the zone of inhibition at 10 µg/disc in the data set on P. mirabilis ATCC 29245 was determined as 20 mm; in [5], 29 mm; with E. coli ATCC 8739, 21 mm; in the data set on E. coli ATCC 35218 it was 20 mm; with B. cereus ATCC 11778 [6] it was 24 mm; in the data set on S. aureus ATCC 6538 it was 17 mm. Besides, the zone of inhibition at 10 µg/disc with E. faecalis ATCC 29212 is 12 mm; in the data set on S. aureus ATCC 25923 [7] it was 21 mm.

For `O=c1c(O)c(-c2ccc(O)c(O)c2)oc2cc(O)cc(O)c12` [Quercetin], the “Inhibition of SrtA enzymatic activity (result in words)” value at SrtA [8] is reported as “proven to inhibit SrtA enzymatic activity”. Moreover, at SrtA [1], the “SrtA inhibition (result in words)” value is reported as “statistically significant SrtA inhibition” and testing at 10 µM gave an inhibition of 8.55%. For the same molecule, the “Solubility in water (result in words)” value in data set [9] is reported as “low solubility in water; also recorded: very low solubility in water”. For the same molecule, the Maximum lethality in the data set on Daphnia magna is listed as ≤ 30%.

In the case of `O=C(O)c1cc(O)c2c(c1)C(=O)c1cccc(O)c1C2=O` [Rhein], the “Antimicrobial effect (result in words)” value in the data set with tested bacteria strains is on record as “observable antimicrobial effect”. The “SrtA inhibition (result in words)” value on SrtA [1] is “statistically significant SrtA inhibition”. The molecule further had an inhibition at 10 µM against SrtA [1] of 7.01%. Besides, in data set [9], the “Solubility in water (result in words)” value was “low solubility in water”. The MIC was found to be 16 µg/mL (≈ 56.3 µM) in [2], 32 µg/mL (≈ 113 µM) against B. cereus ATCC 11778 [3] and 64 µg/mL (≈ 225 µM) with S. aureus ATCC 25923 [4]. Further, the zone of inhibition at 14.2 µg/disc in the data set on P. mirabilis ATCC 29245 amounted to 6 mm; in data set [5], 30 mm; with E. coli ATCC 8739, 6 mm; in the data set on E. coli ATCC 35218, 6 mm; in the data set on B. cereus ATCC 11778 [6], 15 mm; with S. aureus ATCC 6538, 6 mm. For the same molecule, the zone of inhibition at 14.2 µg/disc in the data set with E. faecalis ATCC 29212 turned out to be 6 mm; with S. aureus ATCC 25923 [7], 12 mm.
